Measured values as given in patent US12559506B2, “Indazole based compounds and associated methods of use” (Arvinas Operations, Inc., priority 2021, dated 2026).
Where two headings read alike, the source gives them in different places.

Key:
Type in all cases: cell-based
wildtype LRRK2 = molecular target: T1, wildtype LRRK2 (Homo sapiens, UniProt Q5S007); experiment: LRRK2 degradation assay, HiBit-tagged wildtype LRRK2 expressed from plasmid in HEK293 cells (Nano-Glo Dual-Luciferase); conditions: 24 hours; for Dmax: read-out: **WT Dmax (%); for DC50: read-out: *WT DC50
T1 construct: expressed in transfected cells; host or cells: HEK293 (ATCC CRL-1573), transient transfection, mammalian expression vector with ubiquitin promoter
In short: (§1)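 HEK293 cells co-transfected with C-terminal HiBiT-tagged LRRK2 (WT or G2019S, ubiquitin promoter) and firefly luciferase, then dosed 24 h at 37 °C. HiBiT/firefly ratio normalized to DMSO median; DC50 and Dmax from per-plate curve fits, six replicates over two days.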

[1] = molecular target: T2, LRRK2 (endogenous, HiBit tagged) (Homo sapiens, UniProt Q5S007); experiment: Endogenous LRRK2 degradation assay, endogenous gene C-terminally HiBit-tagged in HEK293 cells (Nano-Glo Dual Luciferase); conditions: endogenous HiBit-tagged LRRK2 in HEK293 cells, 24 hours; for Dmax: read-out: **Endogenous WT Dmax (%); for DC50: read-out: *Endogenous WT DC50
T2 construct: endogenous in cells; host or cells: HEK293 cells with HiBit knock-in at the endogenous LRRK2 locus, stably expressing firefly luciferase
In short: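 LRRK2-HiBit quantified via Nano-Glo Dual Luciferase in HEK293 knock-in cells co-expressing firefly luciferase, after 24 h exposure to compound (1 μM final top, 1:3, 11 points). Values normalised to DMSO median per plate and curve-fitted; Alamar Blue viability run alongside.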

G2019S LRRK2 = molecular target: T3, G2019S LRRK2 (Homo sapiens, UniProt Q5S007, G2019S); experiment: LRRK2 degradation assay, HiBit-tagged G2019S LRRK2 expressed from plasmid in HEK293 cells (Nano-Glo Dual-Luciferase); conditions: 24 hours
T3 construct: expressed in transfected cells; host or cells: HEK293 (ATCC CRL-1573), transient transfection, mammalian expression vector with ubiquitin promoter
In short: as §1

[2] = HiBit-tagged wildtype LRRK2 in HEK293 cells
[3] = HiBit-tagged G2019S LRRK2 in HEK293 cells
[4] = HiBit-tagged wildtype LRRK2, HEK293 cells
[5] = HiBit-tagged G2019S LRRK2, HEK293 cells

T1 sequence (Q5S007 whole entry): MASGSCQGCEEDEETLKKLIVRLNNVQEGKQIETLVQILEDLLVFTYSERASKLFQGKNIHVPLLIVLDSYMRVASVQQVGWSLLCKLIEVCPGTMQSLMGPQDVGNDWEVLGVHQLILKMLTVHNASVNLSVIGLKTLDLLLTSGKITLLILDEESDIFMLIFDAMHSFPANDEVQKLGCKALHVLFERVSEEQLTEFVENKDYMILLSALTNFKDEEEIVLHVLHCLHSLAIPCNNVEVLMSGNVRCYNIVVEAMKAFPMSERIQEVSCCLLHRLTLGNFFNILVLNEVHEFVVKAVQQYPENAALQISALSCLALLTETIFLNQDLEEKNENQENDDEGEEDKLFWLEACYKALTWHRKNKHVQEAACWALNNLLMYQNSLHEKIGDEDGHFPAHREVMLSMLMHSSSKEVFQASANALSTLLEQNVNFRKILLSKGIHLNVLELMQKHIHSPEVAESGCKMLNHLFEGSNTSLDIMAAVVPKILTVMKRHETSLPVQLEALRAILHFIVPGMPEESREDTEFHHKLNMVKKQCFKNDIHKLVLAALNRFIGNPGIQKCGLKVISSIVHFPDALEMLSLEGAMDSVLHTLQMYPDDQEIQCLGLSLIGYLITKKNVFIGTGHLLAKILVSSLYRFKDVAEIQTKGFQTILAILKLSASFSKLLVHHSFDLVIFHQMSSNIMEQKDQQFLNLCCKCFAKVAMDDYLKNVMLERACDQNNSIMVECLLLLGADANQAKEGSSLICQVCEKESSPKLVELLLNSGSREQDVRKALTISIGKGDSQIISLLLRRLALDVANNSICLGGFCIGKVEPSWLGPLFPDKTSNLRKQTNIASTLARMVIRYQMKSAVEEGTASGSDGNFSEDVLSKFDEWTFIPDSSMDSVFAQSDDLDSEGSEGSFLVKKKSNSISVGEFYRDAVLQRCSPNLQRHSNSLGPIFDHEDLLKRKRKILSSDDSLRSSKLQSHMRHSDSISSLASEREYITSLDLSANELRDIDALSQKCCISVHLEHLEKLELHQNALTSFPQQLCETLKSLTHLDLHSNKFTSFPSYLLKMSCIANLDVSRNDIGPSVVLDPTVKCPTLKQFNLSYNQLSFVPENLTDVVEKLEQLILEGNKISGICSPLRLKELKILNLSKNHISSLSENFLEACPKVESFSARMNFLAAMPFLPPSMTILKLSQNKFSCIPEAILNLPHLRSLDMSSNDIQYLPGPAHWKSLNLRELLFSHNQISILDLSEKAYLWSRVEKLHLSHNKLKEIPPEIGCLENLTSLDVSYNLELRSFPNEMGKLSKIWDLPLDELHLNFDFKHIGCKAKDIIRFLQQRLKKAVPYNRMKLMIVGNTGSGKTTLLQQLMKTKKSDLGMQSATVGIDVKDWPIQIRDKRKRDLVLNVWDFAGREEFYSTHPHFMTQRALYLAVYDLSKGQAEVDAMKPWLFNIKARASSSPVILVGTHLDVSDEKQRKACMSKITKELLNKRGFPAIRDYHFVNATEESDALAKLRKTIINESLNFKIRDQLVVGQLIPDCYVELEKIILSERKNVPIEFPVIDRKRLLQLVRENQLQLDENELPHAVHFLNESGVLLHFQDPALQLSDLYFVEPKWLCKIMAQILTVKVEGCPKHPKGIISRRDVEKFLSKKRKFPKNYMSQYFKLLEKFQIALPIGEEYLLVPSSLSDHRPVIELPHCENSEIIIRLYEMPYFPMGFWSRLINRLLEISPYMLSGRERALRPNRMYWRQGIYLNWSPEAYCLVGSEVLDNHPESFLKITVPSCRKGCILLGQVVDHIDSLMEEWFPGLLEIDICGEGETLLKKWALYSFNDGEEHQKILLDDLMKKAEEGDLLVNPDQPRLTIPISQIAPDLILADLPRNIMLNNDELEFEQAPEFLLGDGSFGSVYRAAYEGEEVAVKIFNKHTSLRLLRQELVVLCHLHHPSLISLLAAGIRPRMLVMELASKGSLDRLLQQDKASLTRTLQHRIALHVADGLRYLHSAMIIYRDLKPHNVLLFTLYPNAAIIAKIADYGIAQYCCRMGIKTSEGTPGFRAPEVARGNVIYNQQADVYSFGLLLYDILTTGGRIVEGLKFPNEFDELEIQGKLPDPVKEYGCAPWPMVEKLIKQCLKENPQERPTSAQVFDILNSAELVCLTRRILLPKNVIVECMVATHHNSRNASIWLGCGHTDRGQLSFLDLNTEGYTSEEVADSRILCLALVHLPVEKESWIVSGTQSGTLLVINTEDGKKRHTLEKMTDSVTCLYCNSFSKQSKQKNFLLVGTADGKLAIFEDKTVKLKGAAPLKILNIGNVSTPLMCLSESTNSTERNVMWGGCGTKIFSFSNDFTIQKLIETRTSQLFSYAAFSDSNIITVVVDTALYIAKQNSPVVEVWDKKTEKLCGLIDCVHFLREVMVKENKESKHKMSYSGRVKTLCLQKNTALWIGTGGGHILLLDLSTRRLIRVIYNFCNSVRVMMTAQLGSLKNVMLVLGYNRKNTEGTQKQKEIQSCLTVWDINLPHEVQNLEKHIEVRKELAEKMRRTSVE
T2 sequence (Q5S007 whole entry): as above
T3 sequence (Q5S007 whole entry G2019S): as the sequence (Q5S007 whole entry) above, with G2019S counted along it

| Dmax (wildtype LRRK2; [2]) | DC50 (wildtype LRRK2; [2]) | Dmax [1] | DC50 [1] | DC50 (G2019S LRRK2; [3]) | Dmax (G2019S LRRK2; [3]) | Dmax (wildtype LRRK2; [4]) | DC50 (wildtype LRRK2; [4]) | DC50 (G2019S LRRK2; [5]) | Dmax (G2019S LRRK2; [5]) | Structure (SMILES) |
| --- | --- | --- | --- | --- | --- | --- | --- | --- | --- | --- |
| 50 to 70% | < 10 nM | 50 to 70% | < 10 nM | < 10 nM | 50 to 70% |  |  |  |  | CC1(Oc2ccc3[nH]nc(-c4cc(N5CCN(C[C@H]6CC(=O)N(CC7CCN(c8ccc9c(c8)C(=O)N(C8CCC(=O)NC8=O)C9=O)CC7)C6)CC5)ncn4)c3c2)CC1 (single isomer, unassigned) [Compound 120] |
| ≥ 70% | < 10 nM | ≥ 70% | < 10 nM | < 10 nM | ≥ 70% |  |  |  |  | CC1(Oc2ccc3n[nH]c(-c4cc(N5CC(F)(CN6CCN(CC7CCN(c8ccc9c(c8)C(=O)N(C8CCC(=O)NC8=O)C9=O)CC7)CC6)C5)ncn4)c3c2)CC1 (centres unmarked) [Compound 131, 2-(2,6-dioxo-3-piperidyl)-5-[4-[[4-[[3-fluoro-1-[6-[5-(1-methylcyclopropoxy)-2H-indazol-3-yl]pyrimidin-4-yl]azetidin-3-yl]methyl]piperazin-1-yl]methyl]-1-piperidyl]isoindoline-1,3-dione] |
| 50 to 70% | < 10 nM | ≥ 70% | 10 to 50 nM | < 10 nM | 50 to 70% |  |  |  |  | C[C@H]1CN(c2cc(-c3n[nH]c4ccc(OC5(C)CC5)cc34)ncn2)CCN1CCC1(F)CCN(CC2CCN(c3ccc4c(c3)C(=O)N(C3CCC(=O)NC3=O)C4=O)CC2)CC1 (stereo partly drawn) [Compound 52, 2-(2,6-dioxo-3-piperidyl)-5-[4-[[4-fluoro-4-[2-[(2S)-2-methyl-4-[6-[5-(1-methylcyclopropoxy)-1H-indazol-3-yl]pyrimidin-4-yl]piperazin-1-yl]ethyl]-1-piperidyl]methyl]-1-piperidyl]isoindoline-1,3-dione] |
| 50 to 70% | < 10 nM | ≥ 70% | < 10 nM | < 10 nM | 50 to 70% |  |  |  |  | CC1(Oc2ccc3[nH]nc(-c4ccnc(N5CC(F)(CN6CCN(CC7CCN(c8ccc9c(c8)C(=O)N(C8CCC(=O)NC8=O)C9=O)CC7)CC6)C5)c4)c3c2)CC1 (centres unmarked) [Compound 132, 2-(2,6-dioxopiperidin-3-yl)-5-[4-({4-[(3-fluoro-1-{4-[5-(1-methylcyclopropoxy)-1H-indazol-3-yl]pyridin-2-yl}azetidin-3-yl)methyl]piperazin-1-yl}methyl)piperidin-1-yl]-2,3-dihydro-1H-isoindole-1,3-dione] |
| ≥ 70% | < 10 nM |  |  | < 10 nM | ≥ 70% |  |  |  |  | CC1(Oc2ccc3[nH]nc(-c4cc(N5CCN(CCN6CCN(CC7CCN(c8ccc9c(c8)C(=O)N(C8CCC(=O)NC8=O)C9=O)CC7)CC6)CC5)ncn4)c3c2)CC1 (centres unmarked) [Compound 54, 2-(2,6-dioxopiperidin-3-yl)-5-[4-({4-[2-(4-{6-[5-(1-methylcyclopropoxy)-1H-indazol-3-yl]pyrimidin-4-yl}piperazin-1-yl)ethyl]piperazin-1-yl}methyl)piperidin-1-yl]-2,3-dihydro-1H-isoindole-1,3-dione] |
|  |  |  |  |  |  | < 50% | < 10 nM | < 10 nM | < 50% | CC1(Oc2ccc3[nH]nc(-c4cc(N5CCO[C@@H](CN6CCN(CC7CCN(c8ccc9c(c8)C(=O)N(C8CCC(=O)NC8=O)C9=O)CC7)CC6)C5)ncn4)c3c2)CC1 (stereo partly drawn) [Compound 153, 2-(2,6-dioxopiperidin-3-yl)-5-{4-[(4-{[(2S)-4-{6-[5-(1-methylcyclopropoxy)-1H-indazol-3-yl]pyrimidin-4-yl}morpholin-2-yl]methyl}piperazin-1-yl)methyl]piperidin-1-yl}-2,3-dihydro-1H-isoindole-1,3-dione] |
| 50 to 70% | < 10 nM |  |  | < 10 nM | 50 to 70% |  |  |  |  | CC1(Oc2ccc3[nH]nc(-c4cc(N5CCC(CN6CC[C@@H](CN7CCN(c8ccc9c(c8)C(=O)N(C8CCC(=O)NC8=O)C9=O)CC7)C6)CC5)ncn4)c3c2)CC1 (stereo partly drawn) [Compound 115, 2-(2,6-dioxopiperidin-3-yl)-5-(4-{[(3R)-1-[(1-{6-[5-(1-methylcyclopropoxy)-1H-indazol-3-yl]pyrimidin-4-yl}piperidin-4-yl)methyl]pyrrolidin-3-yl]methyl}piperazin-1-yl)-2,3-dihydro-1H-isoindole-1,3-dione] |
| < 50% | < 10 nM |  |  | < 10 nM | < 50% |  |  |  |  | C[C@H]1CN(c2cc(-c3n[nH]c4ccc(OC5(C)CC5)cc34)ccn2)CCN1CC1(F)CCN(CC2CCN(c3ccc4c(c3)C(=O)N(C3CCC(=O)NC3=O)C4=O)CC2)CC1 (stereo partly drawn) [Compound 81, 2-(2,6-dioxopiperidin-3-yl)-5-{4-[(4-fluoro-4-{[(2S)-2-methyl-4-{4-[5-(1-methylcyclopropoxy)-1H-indazol-3-yl]pyridin-2-yl}piperazin-1-yl]methyl}piperidin-1-yl)methyl]piperidin-1-yl}-2,3-dihydro-1H-isoindole-1,3-dione] |
| < 50% | < 10 nM |  |  | < 10 nM | 50 to 70% |  |  |  |  | C[C@H]1CN(c2cc(-c3[nH]nc4ccc(OC5(C)CC5)cc34)ncn2)CCN1CC1CCN(CC2CCN(c3cccc4c3CN(C3CCC(=O)NC3=O)C4=O)CC2)CC1 (stereo partly drawn) [Compound 145, 3-[4-[4-[[4-[[(2S)-2-methyl-4-[6-[5-(1-methylcyclopropoxy)-2H-indazol-3-yl]pyrimidin-4-yl]piperazin-1-yl]methyl]-1-piperidyl]methyl]-1-piperidyl]-1-oxo-isoindolin-2-yl]piperidine-2,6-dione] |
| < 50% | 10 to 50 nM |  |  | 10 to 50 nM | 50 to 70% |  |  |  |  | CC1(Oc2ccc3[nH]nc(-c4cc(N5CCN(CC6CCN(CCCCNc7cccc8c7CN(C7CCC(=O)NC7=O)C8=O)CC6)CC5)ncn4)c3c2)CC1 (centres unmarked) [Compound 143, 3-[4-[4-[4-[[4-[6-[5-(1-methylcyclopropoxy)-1H-indazol-3-yl]pyrimidin-4-yl]piperazin-1-yl]methyl]-1-piperidyl]butylamino]-1-oxo-isoindolin-2-yl]piperidine-2,6-dione] |
| < 50% | 50 to 100 nM |  |  | 50 to 100 nM | < 50% |  |  |  |  | CC1(Oc2ccc3[nH]nc(-c4cc(N5CCC(CN6CCN(CC7CCN(c8ccc9c(c8)C(=O)N(C8CCC(=O)NC8=O)C9=O)CC7)CC6)CC5)ncc4F)c3c2)CC1 (centres unmarked) [Compound 99, 2-(2,6-dioxo-3-piperidyl)-5-[4-[[4-[[1-[5-fluoro-4-[5-(1-methylcyclopropoxy)-1H-indazol-3-yl]-2-pyridyl]-4-piperidyl]methyl]piperazin-1-yl]methyl]-1-piperidyl]isoindoline-1,3-dione] |
|  |  |  |  |  |  | < 50% | < 10 nM | < 10 nM | < 50% | CC1(Oc2ccc3[nH]nc(-c4cc(N5CC[C@H](CN6CCN(CC7CCN(c8ccc9c(c8)C(=O)N(C8CCC(=O)NC8=O)C9=O)CC7)CC6)C5)ncn4)c3c2)CC1 (stereo partly drawn) [Compound 166, 2-(2,6-dioxo-3-piperidyl)-5-[4-[[4-[[(3R)-1-[6-[5-(1-methylcyclopropoxy)-1H-indazol-3-yl]pyrimidin-4-yl]pyrrolidin-3-yl]methyl]piperazin-1-yl]methyl]-1-piperidyl]isoindoline-1,3-dione] |
| < 50% | 10 to 50 nM |  |  | 10 to 50 nM | < 50% |  |  |  |  | C[C@H]1CN(c2cc(-c3n[nH]c4ccc(OC5(C)CC5)cc34)ncn2)CCN1CC1CCN(CCCOc2cccc3c2C(=O)N(C2CCC(=O)NC2=O)C3=O)CC1 (stereo partly drawn) [Compound 139, 2-(2,6-dioxo-3-piperidyl)-4-[3-[4-[[(2S)-2-methyl-4-[6-[5-(1-methylcyclopropoxy)-2H-indazol-3-yl]pyrimidin-4-yl]piperazin-1-yl]methyl]-1-piperidyl]propoxy]isoindoline-1,3-dione] |
|  |  |  |  |  |  | 50 to 70% | < 10 nM | < 10 nM | 50 to 70% | CC1(Oc2ccc3[nH]nc(-c4cc(N5CCO[C@@H](CCN6CCN(CC7CCN(c8ccc9c(c8)C(=O)N(C8CCC(=O)NC8=O)C9=O)CC7)CC6)C5)ncn4)c3c2)CC1 (single isomer, unassigned) [Compound 154] |
|  |  |  |  |  |  |  | ≥ 100 nM | ≥ 100 nM | < 50% | CC1(Oc2ccc3n[nH]c(-c4cc(N5CCC(Cc6ccc(CC7CCN(c8ccc9c(c8)C(=O)N(C8CCC(=O)NC8=O)C9=O)CC7)cc6)CC5)ncn4)c3c2)CC1 (centres unmarked) [Compound 171, 2-(2,6-dioxo-3-piperidyl)-5-[4-[[4-[[1-[6-[5-(1-methylcyclopropoxy)-2H-indazol-3-yl]pyrimidin-4-yl]-4-piperidyl]methyl]phenyl]methyl]-1-piperidyl]isoindoline-1,3-dione] |
| 50 to 70% | 10 to 50 nM |  |  | 10 to 50 nM | < 50% |  |  |  |  | CC1(Oc2ccc3[nH]nc(-c4cc(N5CCC(O[C@H]6CC[C@H](OC7CCN(c8ccc9c(c8)C(=O)N(C8CCC(=O)NC8=O)C9=O)CC7)CC6)CC5)ncn4)c3c2)CC1 (some centres unmarked) [Compound 108, 2-(2,6-dioxo-3-piperidyl)-5-[4-[4-[[1-[6-[5-(1-methylcyclopropoxy)-1H-indazol-3-yl]pyrimidin-4-yl]-4-piperidyl]oxy]cyclohexoxy]-1-piperidyl]isoindoline-1,3-dione] |
